Converted amounts (≈) assume the structure as drawn.
Test system: Helicobacter pylori
Assay: activity against Helicobacter pylori (MIC 50, Columbia agar, growth period of 4 days)
Format: cell-based
Settings: 96 h, Columbia agar (Oxoid), method of Iwahi et al., approximate values, read-out: Approx. MIC 50 value
Excerpt: The compounds of formula I have been investigated in respect of their activity against Helicobacter pylori in accordance with the method described by Tomoyuki Iwahi et al. (Antimicrobial Agents and Chemo-therapy, 1991, 490-496) using Columbia agar (Oxoid) over a growth period of 4 days. The approximate MIC 50 values listed in the following Table 2 resulted from these tests for the compounds studied (the numbers stated for the compounds agree with the compound numbers in the description).

| Compound | MIC50 |
| --- | --- |
| Cc1nnc(SCCCSc2ccnc(CSc3nc4ccccc4[nH]3)c2C)s1 [Compound 1] | ~0.1 µg/mL (≈ 0.218 µM) |
| Cc1c(SCCCSc2nnc(N)s2)ccnc1CSc1nc2ccccc2[nH]1 [Compound 5, 2-{[[4-[3-(5-Amino-1,3,4-thiadiazol-2-yl-thio)-propylthio]-3-methyl-2-pyridinyl]methyl]thio}-1H-benzimidazole] | ~0.5 µg/mL (≈ 1.09 µM) |
| Cc1c(SCCCSc2ncc[nH]2)ccnc1CSc1nc2ccccc2[nH]1 [Compound 6, 2-{[[4-[3-Imidazol-2-yl-thio-propylthio]-3-methyl-2-pyridinyl]methyl]thio}-1H-benzimidazole] | ~0.1 µg/mL (≈ 0.234 µM) |
| Cc1c(SCCCSc2ccccc2)ccnc1CSc1nc2ccccc2[nH]1 [Compound 13] | ~0.05 µg/mL (≈ 0.114 µM) |
| Cc1ccnc(SCCCSc2ccnc(CSc3nc4ccccc4[nH]3)c2C)n1 [Compound 16, 2-{[[3-Methyl-4-[3-(4-methyl-pyrimidine-2-yl-thio)-propylthio]-2-pyridinyl]methyl]thio}-1H-benzimidazole] | ~0.05 µg/mL (≈ 0.11 µM) |
| Cc1c(SCCCSc2nncs2)ccnc1CSc1nc2ccccc2[nH]1.Cl.Cl.Cl [Compound 18, 2-{[[3-Methyl-4-(3-(1,3,4-thiadiazol-2-yl-thio)-propylthio)-2-pyridinyl]methyl]thio}-1H-benzimidazole trihydrochloride] | ~0.05 µg/mL |
| Cc1c(SCCCSc2ccncc2)ccnc1CSc1nc2ccccc2[nH]1 [Compound 19, 2-{[[3-Methyl-4-(3-(pyridin-4-yl-thio)-propylthio)-2-pyridinyl]methyl]thio}-1H-benzimidazole] | ~0.05 µg/mL (≈ 0.114 µM) |
| Cc1c(SCCCCSc2nnnn2C)ccnc1CSc1nc2ccccc2[nH]1 [Compound 24, 2-{[[3-Methyl-4-(4-(1-methyl-tetrazol-5-yl-thio)-butylthio)-2-pyridinyl]methyl]thio}-1H-benzimidazole] | ~0.05 µg/mL (≈ 0.109 µM) |

Next, values leading:

| MIC50 | Compound |
| --- | --- |
| ~0.05 µg/mL (≈ 0.113 µM) | Cc1c(SCCCSc2nncn2C)ccnc1CSc1nc2ccccc2[nH]1 [Compound 2, 2-{[[3-Methyl-4-(3-(4-methyl-1,2,4-triazol-3-yl-thio)-propylthio)-2-pyridinyl]methyl]thio}-1H-benzimidazole] |
| ~0.05 µg/mL (≈ 0.113 µM) | Cc1c(SCCCSc2nccn2C)ccnc1CSc1nc2ccccc2[nH]1 [Compound 3, 2-{[[3-Methyl-4-(3-(1-methylimidazol-2-yl-thio)-propylthio)-2-pyridinyl]methyl]thio}-1H-benzimidazole] |
| ~0.05 µg/mL (≈ 0.113 µM) | Cc1c(SCCCSc2nnnn2C)ccnc1CSc1nc2ccccc2[nH]1 [Compound 8, 2-{[[3-Methyl-4-(3-(1-methyl-tetrazol-5-yl-thio)-propylthio)-2-pyridinyl]methyl]thio}-1H-benzimidazole] |
| ~0.05 µg/mL (≈ 0.112 µM) | Cc1c(SCCCSc2nccs2)ccnc1CSc1nc2ccccc2[nH]1 [Compound 9, 2-{[[3-Methyl-4-(3-(thiazol-2-yl-thio)-propylthio)2-pyridinyl]methyl]thio}-1H-benzimidazole] |
| ~0.05 µg/mL (≈ 0.114 µM) | Cc1c(SCCCSc2ccccn2)ccnc1CSc1nc2ccccc2[nH]1 [Compound 10, 2-{[[3-Methyl-4-(3-(pyridin-2-yl-thio)-propylthio)-2-pyridinyl]methyl]thio}-1H-benzimidazole] |
| ~0.05 µg/mL (≈ 0.114 µM) | Cc1c(SCCCSc2ncccn2)ccnc1CSc1nc2ccccc2[nH]1 [Compound 11, 2-{[[3-Methyl-4-(3-(pyrimidin-2-yl-thio)-propylthio)-2-pyridinyl]methyl]thio}-1H-benzimidazole] |
| ~0.05 µg/mL (≈ 0.105 µM) | Cc1c(SCCCSc2nc3ccccc3[nH]2)ccnc1CSc1nc2ccccc2[nH]1 [Compound 12] |

Reference: patent US5773451A, “Substituted arylthioalkylthiopyridines” (BYK Gulden Lomberg Chemische Fabrik GmbH, priority 1993, dated 1998)
